The experiment deals with T1, sodium channel (voltage-gated, skeletal muscle).
T1 construct: gene scn4a; native channel in single semitendinosus muscle fibers
Nature of the experiment: three vaseline gap voltage clamp of Na+ current, phasic ([…] Hz use-dependent) block. It counts as cell-based. Conditions: read-out: Phasic block IC 50.

pIC50: −log10 of the molar value.

As for `Cc1cccc(C)c1OCC(C)N` (racemic) [Mexiletine, 1-(2,6-dimethylphenoxy)-2-propanamine], the pIC50 is 4.51.
Take `CC(N)COc1c2cccc1Cc1cccc(c1OCC(C)N)Cc1cccc(c1OCC(C)N)Cc1cccc(c1OCC(C)N)C2` (centres unmarked) [compound 4, Calixmexitil]: the pIC50 is 5.52.

The values are drawn from PMC6934949, “Calixmexitil: Calixarene-based Cluster of Mexiletine with Amplified Anti-myotonic Activity as A Novel Use-dependent Sodium Channel Blocker” (Iranian Journal of Pharmaceutical Research : IJPR, 2019).
